In publication PMC4774911, “Biochemical Screening of Five Protein Kinases from Plasmodium falciparum against 14,000 Cell-Active Compounds” (PLoS ONE, 2016) one finds Kd data, which are given here for one compound.

Experiment in all cases: biochemical
Common to all, as to set-up: endogenous in cells; host or cells: K562 cell extract; species or system K562 (extract); replicate k of n = 2 (each experiment ID is one independent experiment; two experiment IDs per compound)
Holding throughout (details): read-out: KDapp

The target in one experiment is T1, AXL (Homo sapiens, UniProt P30530).
T1 sequence (P30530 1-894): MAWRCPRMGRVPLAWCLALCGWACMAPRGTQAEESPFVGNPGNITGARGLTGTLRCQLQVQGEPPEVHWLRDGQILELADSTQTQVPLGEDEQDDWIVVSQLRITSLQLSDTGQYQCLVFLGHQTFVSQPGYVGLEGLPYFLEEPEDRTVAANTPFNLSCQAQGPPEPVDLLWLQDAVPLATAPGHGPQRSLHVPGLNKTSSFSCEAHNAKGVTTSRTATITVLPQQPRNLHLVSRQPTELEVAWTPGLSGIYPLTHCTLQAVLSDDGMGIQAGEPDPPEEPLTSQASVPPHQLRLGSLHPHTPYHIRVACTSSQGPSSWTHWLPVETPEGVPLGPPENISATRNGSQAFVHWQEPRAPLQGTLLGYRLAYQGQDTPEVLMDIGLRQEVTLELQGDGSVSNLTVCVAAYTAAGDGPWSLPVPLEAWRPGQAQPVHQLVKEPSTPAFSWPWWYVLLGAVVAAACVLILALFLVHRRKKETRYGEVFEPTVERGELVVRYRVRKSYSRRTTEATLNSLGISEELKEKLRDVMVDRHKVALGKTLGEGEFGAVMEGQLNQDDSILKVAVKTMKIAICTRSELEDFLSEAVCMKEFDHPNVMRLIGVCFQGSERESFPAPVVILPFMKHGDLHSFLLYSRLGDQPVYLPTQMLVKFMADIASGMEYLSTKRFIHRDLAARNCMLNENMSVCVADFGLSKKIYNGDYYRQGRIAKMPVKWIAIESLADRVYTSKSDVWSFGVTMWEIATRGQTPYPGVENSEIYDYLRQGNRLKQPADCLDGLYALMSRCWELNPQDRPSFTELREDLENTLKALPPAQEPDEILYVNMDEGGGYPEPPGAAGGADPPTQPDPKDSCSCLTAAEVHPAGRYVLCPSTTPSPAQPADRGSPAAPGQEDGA

The next experiment concerns the target BMX (Homo sapiens, UniProt P51813).
For the next experiment, the target named is T2, MASTL (Homo sapiens, UniProt Q96GX5).
T2 sequence (Q96GX5 1-879): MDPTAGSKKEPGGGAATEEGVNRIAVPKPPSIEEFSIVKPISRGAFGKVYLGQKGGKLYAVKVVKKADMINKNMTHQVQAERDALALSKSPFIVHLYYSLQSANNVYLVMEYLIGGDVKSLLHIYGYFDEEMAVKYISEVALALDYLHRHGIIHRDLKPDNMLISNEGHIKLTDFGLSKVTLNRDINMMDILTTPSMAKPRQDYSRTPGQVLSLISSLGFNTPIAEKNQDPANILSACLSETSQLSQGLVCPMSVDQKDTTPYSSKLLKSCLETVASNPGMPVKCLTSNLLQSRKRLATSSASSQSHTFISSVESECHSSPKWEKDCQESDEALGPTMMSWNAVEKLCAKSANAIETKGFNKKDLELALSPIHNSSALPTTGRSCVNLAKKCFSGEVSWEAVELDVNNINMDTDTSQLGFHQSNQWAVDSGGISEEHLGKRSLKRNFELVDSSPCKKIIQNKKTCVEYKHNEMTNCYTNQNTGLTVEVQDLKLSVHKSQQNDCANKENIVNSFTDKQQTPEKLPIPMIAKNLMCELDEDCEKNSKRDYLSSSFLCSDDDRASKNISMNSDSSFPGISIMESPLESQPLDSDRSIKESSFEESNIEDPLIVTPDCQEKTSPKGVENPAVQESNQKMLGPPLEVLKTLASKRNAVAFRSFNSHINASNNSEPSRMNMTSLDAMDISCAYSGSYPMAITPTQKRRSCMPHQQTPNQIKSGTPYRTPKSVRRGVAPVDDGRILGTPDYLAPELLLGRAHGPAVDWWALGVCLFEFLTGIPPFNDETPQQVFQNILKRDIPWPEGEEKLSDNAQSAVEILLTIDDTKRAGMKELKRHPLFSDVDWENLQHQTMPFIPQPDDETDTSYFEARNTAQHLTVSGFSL

A further experiment deals with PIK3R4 (Homo sapiens, UniProt Q99570).
The target in the next experiment is T3, ULK3 (Homo sapiens, UniProt Q6PHR2).
T3 sequence (Q6PHR2 1-472): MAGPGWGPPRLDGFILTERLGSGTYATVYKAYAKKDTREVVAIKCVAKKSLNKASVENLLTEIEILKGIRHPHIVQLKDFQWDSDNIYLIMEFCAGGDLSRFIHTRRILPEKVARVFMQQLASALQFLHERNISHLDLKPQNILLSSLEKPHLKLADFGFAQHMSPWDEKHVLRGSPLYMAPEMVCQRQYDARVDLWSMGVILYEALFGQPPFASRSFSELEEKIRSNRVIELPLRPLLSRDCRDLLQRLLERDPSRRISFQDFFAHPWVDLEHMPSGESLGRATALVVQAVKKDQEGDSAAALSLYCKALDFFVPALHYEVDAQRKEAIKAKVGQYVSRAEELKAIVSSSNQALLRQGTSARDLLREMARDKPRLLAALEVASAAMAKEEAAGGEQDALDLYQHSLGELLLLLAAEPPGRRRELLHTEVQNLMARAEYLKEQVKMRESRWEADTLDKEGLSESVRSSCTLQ

Molecules are shown by their SMILES. Values joined by “and” are separate entries in the source; they are usually repeats but may differ in a detail not shown here. Equal entries are not always repeated.

Sequence of BMX (P51813 whole entry): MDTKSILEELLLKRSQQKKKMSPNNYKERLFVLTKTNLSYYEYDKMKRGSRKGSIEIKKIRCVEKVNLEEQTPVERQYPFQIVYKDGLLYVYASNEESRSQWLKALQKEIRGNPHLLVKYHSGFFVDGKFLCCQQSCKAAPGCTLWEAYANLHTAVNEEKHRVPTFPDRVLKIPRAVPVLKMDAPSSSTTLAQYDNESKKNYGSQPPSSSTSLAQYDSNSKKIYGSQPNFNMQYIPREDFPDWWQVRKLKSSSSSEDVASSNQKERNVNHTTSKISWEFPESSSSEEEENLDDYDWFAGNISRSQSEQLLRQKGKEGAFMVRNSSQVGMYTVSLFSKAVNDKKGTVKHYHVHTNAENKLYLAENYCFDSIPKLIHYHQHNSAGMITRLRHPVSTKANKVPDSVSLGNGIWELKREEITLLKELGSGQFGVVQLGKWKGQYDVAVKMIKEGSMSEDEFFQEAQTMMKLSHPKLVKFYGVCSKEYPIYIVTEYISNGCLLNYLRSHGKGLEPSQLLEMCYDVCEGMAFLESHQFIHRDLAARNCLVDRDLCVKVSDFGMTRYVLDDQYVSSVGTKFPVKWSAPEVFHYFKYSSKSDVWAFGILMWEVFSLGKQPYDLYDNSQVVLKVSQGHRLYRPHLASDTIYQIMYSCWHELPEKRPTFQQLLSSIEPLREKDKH
Sequence of PIK3R4 (Q99570 whole entry): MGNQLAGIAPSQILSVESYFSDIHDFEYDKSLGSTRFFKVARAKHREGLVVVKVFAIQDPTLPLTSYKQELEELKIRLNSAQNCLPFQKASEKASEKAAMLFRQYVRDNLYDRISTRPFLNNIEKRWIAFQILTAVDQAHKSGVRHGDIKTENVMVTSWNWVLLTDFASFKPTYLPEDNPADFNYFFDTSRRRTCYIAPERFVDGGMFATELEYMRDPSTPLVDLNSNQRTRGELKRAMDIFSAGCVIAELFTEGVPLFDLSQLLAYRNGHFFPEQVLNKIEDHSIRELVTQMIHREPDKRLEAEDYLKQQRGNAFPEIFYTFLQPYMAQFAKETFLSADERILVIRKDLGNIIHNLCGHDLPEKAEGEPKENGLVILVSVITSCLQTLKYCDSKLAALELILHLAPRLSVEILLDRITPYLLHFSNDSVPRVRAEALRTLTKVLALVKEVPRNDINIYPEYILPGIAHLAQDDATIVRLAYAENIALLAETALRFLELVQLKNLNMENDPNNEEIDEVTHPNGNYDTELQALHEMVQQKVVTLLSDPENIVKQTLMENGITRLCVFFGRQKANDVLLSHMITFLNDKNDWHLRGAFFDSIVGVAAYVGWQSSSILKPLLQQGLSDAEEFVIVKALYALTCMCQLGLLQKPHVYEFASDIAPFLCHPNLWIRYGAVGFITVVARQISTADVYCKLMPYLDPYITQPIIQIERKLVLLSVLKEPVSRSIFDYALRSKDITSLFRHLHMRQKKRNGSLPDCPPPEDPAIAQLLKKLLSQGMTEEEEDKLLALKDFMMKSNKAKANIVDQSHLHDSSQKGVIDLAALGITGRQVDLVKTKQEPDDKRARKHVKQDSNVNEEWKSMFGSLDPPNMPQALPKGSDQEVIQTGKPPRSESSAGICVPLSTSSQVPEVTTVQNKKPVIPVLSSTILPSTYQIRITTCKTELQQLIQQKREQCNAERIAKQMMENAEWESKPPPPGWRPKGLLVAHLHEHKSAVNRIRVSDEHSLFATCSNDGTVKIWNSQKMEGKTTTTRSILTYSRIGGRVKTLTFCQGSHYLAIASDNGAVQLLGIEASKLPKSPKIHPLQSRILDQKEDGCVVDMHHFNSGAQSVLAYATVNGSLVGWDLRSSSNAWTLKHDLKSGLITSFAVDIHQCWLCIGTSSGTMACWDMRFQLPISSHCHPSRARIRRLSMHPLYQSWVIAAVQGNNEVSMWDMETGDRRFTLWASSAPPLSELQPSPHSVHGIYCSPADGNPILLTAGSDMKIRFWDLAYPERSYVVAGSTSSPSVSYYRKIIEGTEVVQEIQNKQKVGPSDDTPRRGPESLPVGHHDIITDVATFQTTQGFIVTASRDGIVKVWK

For the compound `CN1CCN(c2ccc(Nc3ncc(C#N)c(Nc4ccccc4C(N)=O)n3)cc2)CC1.Cl` [TCMDC-134116], the Kd at AXL is 266 nM and 293 nM; on BMX, 285 nM; at MASTL it was 274 nM and 597 nM; at PIK3R4, 1840 nM; on ULK3, 16.4 nM and 25.9 nM.
